Columns and labels:
[1] = Mobility of nanoparticles in human cervicovaginal mucus (dark field microscopy); settings: low pH of CVM
Description: In order to determine whether the generated nanoparticles have reduced interactions with mucins and are therefore able to move within mucus without becoming trapped, particles were incubated with human cervicovaginal mucus (CVM) and observed via dark field microscopy. In a typical experiment, 51 μL of the nanoparticle suspension was added to 20 μl of CVM. Observations were made in a minimum of three distinct and randomly selected areas of the CVM sample. Control particles with known behavior were used to qualify the CVM sample as appropriate for the assay.

[2] = Physical and chemical stability of I-2 solutions at room temperature; type: physicochemical; settings: formulation buffered in 20 mM Tris (pH 8), F127
Description: Solutions of I-2 were formulated with F127 or Tween 80, and under a range of pH values. Briefly, I-2 was first completely solubilized using an acidic solution (0.1 N HCl) at a high concentration of ˜5% (w/v). The final formulation was diluted to a solution consisting of 0.5% (w/v) I-2 into buffered solution containing F127 or Tween 80 as described in Table 5. Following dilution, the pH of the formulations was measured using pH indicator strips (PEHANON) and confirmed to be within expected range (±0.5 units of target pH).
Physical and chemical stability of the solutions at room temperature (20-25° C.) were assessed after 7-10 days (tfinal). Physical instability in a solution can manifest as the precipitation and sedimentation of the drug of interest and excipients over time. To assess physical stability, the formulations at tfinal were first filtered through a 300 kDa modified polyethersulfone filter membrane (Nanosep) to remove any precipitate in the solution. The concentration of I-2 in the filtrates was then measured and compared to that at t=0. The purity of I-2 in the unfiltered solution was also evaluated at tfinal, to further confirm chemical stability. This parameter is defined by the area under the signal peak that is attributed to compound I-2 as a percentage of all peaks reported by in the sample by HPLC (% peak area).

[3] = Draize-Ocular Irritation assessment; type: in vivo, Dutch-belted rabbits; settings: topical I-2 solution during the PK studies
[4] = Milling with Pluronic F127 to mucus penetrating particles, particle size by dynamic light scattering; type: physicochemical; settings: formulated as MPP, milled with Pluronic F127, DPBS buffered
Description: Compounds of the present invention synthesized in accordance with the preceding Examples were formulated as mucus penetrating particles (MPP). Specifically, compounds I-2, compound I-5, and compound I-6 were each milled in the presence of Pluronic F127 (F127) to determine whether F127 1) aids particle size reduction to several hundreds of nanometers and 2) physically (non-covalently) coats the surface of generated nanoparticles with a mucoinert coating that would minimize particle interactions with mucus constituents and prevent mucus adhesion.
A milling procedure was employed in which an aqueous dispersion containing coarse drug particles and Pluronic F127 (F127) was milled with grinding medium until particle size was reduced below 400 nm as measured by dynamic light scattering. Table 4 lists the size of particles and polydispersity index (a measure of the width of the particle size distribution) generated using this technique. In this example suspensions were buffered using DPBS (Dulbecco's Phosphate-Buffered Saline) which yields a suspension that is both isotonic and has a physiologically relevant pH.

## Cc1cc(C(=O)Nc2cc(Oc3ccc4nc(NC(=O)CN5CC[C@H](N(C)C)C5)cn4n3)ccc2C)n(C)n1 [Compound I-2]
[1]
  solubility in CVM: soluble in the low pH of CVM
[2]
  physical stability of the solution: major physical instability (i.e., precipitation)
[3]
  Draize-Ocular Irritation: no irritation was seen

## Cc1cc(C(=O)Nc2cc(Oc3ccc4nc(NC(=O)NC5COC5)cn4n3)ccc2C)n(C)n1 [Compound I-5]
[4]
  Polydispersity Index (PDI): 0.160

## Cc1ccc(Oc2ccc3nc(NC(=O)CC4COC4)cn3n2)cc1NC(=O)c1cccc(F)c1 [Compound I-6]
[4]; dynamic light scattering
  Particle Size: 245 nm
